≈ marks a conversion by molar mass, not a printed value. Where a SMILES comes first, the peptide text is derived from it. Bridges are numbered along the chain shown (N, C = ends). Roman numbers before positions name the chains, in order. [ ]: non-standard residue; d: D form. Thr(ol) = C[C@@H](O)[C@H](N)CO; Pen = CC(C)(S)[C@H](N)C(=O)O; Tle = CC(C)(C)[C@H](N)C(=O)O; Hiv = CC(C)[C@H](O)C(=O)O; dDab = NCC[C@@H](N)C(=O)O; hSer = N[C@@H](CCO)C(=O)O; Dab = NCC[C@H](N)C(=O)O; Dap = NC[C@H](N)C(=O)O
Key:
Format in all cases: cell-based
[1] = test system: human red blood cells (hRBC); test: Hemolysis; settings: red cells of human, 1 h, 200
In short: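 First, fresh human erythrocytes are washed in PBS; next, they are incubated at 20% (v/v) with compound at 200 μg/mL for 1 h at 37° C. Finally, centrifuged supernatants are diluted and OD540 is taken relative to the Triton X-100 lysis control.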

Escherichia coli 926415 = settings: 926415
In short: (§1)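 Peptides are tested in serial two-fold dilutions against about 10^6 CFU/mL in MH-II broth containing 0.002% P-80 (v/v, final). Plates incubate 18-20 h at 35° C, and the MIC is the lowest peptide level (μg/mL) showing no visible growth.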

[2] = test system: Klebsiella pneumoniae 968733; settings: 968733
In short: as §1

[3] = test system: Klebsiella pneumoniae SSI #3010; settings: SSI #3010
In short: as §1

[4] = test system: Acinetobacter baumannii DSM 30008; settings: DSM 30008
In short: as §1

[5] = test system: Enterobacter cloacae 848840; settings: 848840
In short: as §1

[6] = test system: Acinetobacter baumannii 872842; settings: 872842
In short: as §1

[7] = test system: Escherichia coli ATCC 25922; settings: ATCC 25922
In short: as §1

[8] = test system: Pseudomonas aeruginosa ATCC 27853; settings: ATCC 27853
In short: as §1

| Compound | Hemolysis at 200 μg/mL [1] [%] | MIC (Escherichia coli 926415) [µg/mL] | MIC [2] [µg/mL] | MIC [3] [µg/mL] | MIC [4] [µg/mL] | MIC [5] [µg/mL] | MIC [6] [µg/mL] | MIC [7] [µg/mL] | MIC [8] [µg/mL] |
| --- | --- | --- | --- | --- | --- | --- | --- | --- | --- |
| CC(C)C[C@@H]1NC(=O)[C@@H](CC(C)C)NC(=O)[C@H](CCN)NC(=O)[C@@H](NC(=O)[C@H](CCN)NC(=O)[C@@H](NC(=O)[C@H](CCN)NC(=O)CC[C@@H]2NC(=O)[C@H](CCN)NC(=O)[C@H](Cc3ccc(O)cc3)NC(=O)[C@@H](NC(=O)[C@@H](O)C(C)C)C(C)(C)SSC[C@@H](C(=O)N[C@H](CO)[C@@H](C)O)NC(=O)[C@H](C(C)(C)C)NC(=O)[C@H](CO)NC(=O)[C@H](Cc3c[nH]c4ccccc34)NC(=O)[C@H](CCO)NC(=O)[C@@H](CCN)NC2=O)[C@@H](C)O)CCNC(=O)[C@H]([C@@H](C)O)NC(=O)[C@H](CCN)NC(=O)[C@H](CCN)NC1=O [Ex. 84] (I: H-[Hiv][Pen]Y[Dab]E[dDab][hSer]WS[Tle]C[Thr(ol)] / II: [Dab]T[Dab][Dab][Dab][dL]L[Dab][Dab]T; disulfide I:2-I:11; amide I:5-II:N; lactam II:4-II:C) | <1 | 0.125 (≈ 0.0515 µM) | 0.125 (≈ 0.0515 µM) | 0.125 (≈ 0.0515 µM) | 0.125 (≈ 0.0515 µM) | 0.25 (≈ 0.103 µM) | 0.125 (≈ 0.0515 µM) | 0.0625 (≈ 0.0257 µM) | 0.25 (≈ 0.103 µM) |
| CC(C)C[C@@H]1NC(=O)[C@@H](CC(C)C)NC(=O)[C@H](CCN)NC(=O)[C@@H](NC(=O)[C@H](CCN)NC(=O)[C@@H](NC(=O)[C@H](CCN)NC(=O)CC[C@@H]2NC(=O)[C@H](CCN)NC(=O)[C@H](Cc3ccc(O)cc3)NC(=O)[C@@H](NC(=O)[C@@H](O)C(C)C)CSSC(C)(C)[C@@H](C(=O)N[C@H](CO)[C@@H](C)O)NC(=O)[C@H](C(C)(C)C)NC(=O)[C@H](CO)NC(=O)[C@H](Cc3c[nH]c4ccccc34)NC(=O)[C@H](CCO)NC(=O)[C@@H](CCN)NC2=O)[C@@H](C)O)CCNC(=O)[C@H]([C@@H](C)O)NC(=O)[C@H](CCN)NC(=O)[C@H](CCN)NC1=O [Ex. 85] (I: H-[Hiv]CY[Dab]E[dDab][hSer]WS[Tle][Pen][Thr(ol)] / II: [Dab]T[Dab][Dab][Dab][dL]L[Dab][Dab]T; disulfide I:2-I:11; amide I:5-II:N; lactam II:4-II:C) | 1 | 0.25 (≈ 0.103 µM) | 0.25 (≈ 0.103 µM) | 0.125 (≈ 0.0515 µM) | 0.25 (≈ 0.103 µM) | 0.125 (≈ 0.0515 µM) | 0.25 (≈ 0.103 µM) | 0.0625 (≈ 0.0257 µM) | 0.25 (≈ 0.103 µM) |
| CC(=O)N[C@@H](C(=O)N[C@H]1CSSC[C@@H](C(=O)N[C@H](CO)[C@@H](C)O)NC(=O)[C@H](C(C)(C)C)NC(=O)[C@H](CO)NC(=O)[C@H](Cc2c[nH]c3ccccc23)NC(=O)[C@H](CCO)NC(=O)[C@@H](CCN)NC(=O)[C@H](CCC(=O)N[C@@H](CCN)C(=O)N[C@H](C(=O)N[C@@H](CCN)C(=O)N[C@H]2CCNC(=O)[C@H]([C@@H](C)O)NC(=O)[C@H](CCN)NC(=O)[C@H](CCN)NC(=O)[C@H](CC(C)C)NC(=O)[C@@H](CC(C)C)NC(=O)[C@H](CCN)NC2=O)[C@@H](C)O)NC(=O)[C@H](CCN)NC(=O)[C@H](Cc2ccc(O)cc2)NC1=O)C(C)C [Ex. 86] (I: Ac-[dV]CY[Dab]E[dDab][hSer]WS[Tle]C[Thr(ol)] / II: [Dab]T[Dab][Dab][Dab][dL]L[Dab][Dab]T; disulfide I:2-I:11; amide I:5-II:N; lactam II:4-II:C) | <1 | 0.25 (≈ 0.102 µM) | 0.125 (≈ 0.0512 µM) | 0.125 (≈ 0.0512 µM) | 0.0625 (≈ 0.0256 µM) | 1 (≈ 0.41 µM) | 0.25 (≈ 0.102 µM) | 0.125 (≈ 0.0512 µM) | 0.125 (≈ 0.0512 µM) |
| CC(C)C[C@@H]1NC(=O)[C@@H](CC(C)C)NC(=O)[C@H](CCN)NC(=O)[C@@H](NC(=O)[C@H](CCN)NC(=O)[C@@H](NC(=O)[C@H](CCN)NC(=O)CC[C@@H]2NC(=O)[C@H](CCN)NC(=O)[C@H](Cc3ccc(O)cc3)NC(=O)[C@@H](NC(=O)[C@@H](O)C(C)C)CSSC[C@@H](C(=O)N[C@H](CO)[C@@H](C)O)NC(=O)[C@H](C(C)(C)C)NC(=O)CNC(=O)[C@H](Cc3c[nH]c4ccccc34)NC(=O)[C@H](CCO)NC(=O)[C@@H](CCN)NC2=O)[C@@H](C)O)CCNC(=O)[C@H]([C@@H](C)O)NC(=O)[C@H](CCN)NC(=O)[C@H](CCN)NC1=O [Ex. 87] (I: H-[Hiv]CY[Dab]E[dDab][hSer]WG[Tle]C[Thr(ol)] / II: [Dab]T[Dab][Dab][Dab][dL]L[Dab][Dab]T; disulfide I:2-I:11; amide I:5-II:N; lactam II:4-II:C) | <1 | 0.0625 (≈ 0.0264 µM) | 0.125 (≈ 0.0527 µM) | 0.125 (≈ 0.0527 µM) | 0.0625 (≈ 0.0264 µM) | 2 (≈ 0.844 µM) | 0.25 (≈ 0.105 µM) | 0.0625 (≈ 0.0264 µM) | 0.125 (≈ 0.0527 µM) |
| CC(C)C[C@@H]1NC(=O)[C@@H](CC(C)C)NC(=O)[C@H](CCN)NC(=O)[C@@H](NC(=O)[C@H](CCN)NC(=O)[C@@H](NC(=O)[C@H](CCN)NC(=O)CC[C@@H]2NC(=O)[C@H](CO)NC(=O)[C@H](Cc3ccc(O)cc3)NC(=O)[C@@H](NC(=O)[C@@H](O)C(C)C)CSSC[C@@H](C(=O)N[C@H](CO)[C@@H](C)O)NC(=O)[C@H](C(C)(C)C)NC(=O)[C@H](CO)NC(=O)[C@H](Cc3c[nH]c4ccccc34)NC(=O)[C@H](CCO)NC(=O)[C@@H](CCN)NC2=O)[C@@H](C)O)CCNC(=O)[C@H]([C@@H](C)O)NC(=O)[C@H](CCN)NC(=O)[C@H](CCN)NC1=O [Ex. 88] (I: H-[Hiv]CYSE[dDab][hSer]WS[Tle]C[Thr(ol)] / II: [Dab]T[Dab][Dab][Dab][dL]L[Dab][Dab]T; disulfide I:2-I:11; amide I:5-II:N; lactam II:4-II:C) | <1 | 0.125 (≈ 0.0523 µM) | 0.125 (≈ 0.0523 µM) | 0.125 (≈ 0.0523 µM) | 0.03125 (≈ 0.0131 µM) | 0.125 (≈ 0.0523 µM) | 0.125 (≈ 0.0523 µM) | 0.0625 (≈ 0.0262 µM) | 0.125 (≈ 0.0523 µM) |
| CC(C)C[C@@H]1NC(=O)[C@@H](CC(C)C)NC(=O)[C@H](CCN)NC(=O)[C@@H](NC(=O)[C@H](CCN)NC(=O)[C@@H](NC(=O)[C@H](CCN)NC(=O)CC[C@@H]2NC(=O)[C@H](CCN)NC(=O)[C@H](C(C)C)NC(=O)[C@@H](NC(=O)[C@@H](O)C(C)C)CSSC[C@@H](C(=O)N[C@H](CO)[C@@H](C)O)NC(=O)[C@H](Cc3ccc(O)cc3)NC(=O)[C@H](CO)NC(=O)[C@H](Cc3c[nH]c4ccccc34)NC(=O)[C@H](CCO)NC(=O)[C@@H](CCN)NC2=O)[C@@H](C)O)CCNC(=O)[C@H]([C@@H](C)O)NC(=O)[C@H](CCN)NC(=O)[C@H](CCN)NC1=O [Ex. 89] (I: H-[Hiv]CV[Dab]E[dDab][hSer]WSYC[Thr(ol)] / II: [Dab]T[Dab][Dab][Dab][dL]L[Dab][Dab]T; disulfide I:2-I:11; amide I:5-II:N; lactam II:4-II:C) | <1 | 0.5 (≈ 0.209 µM) | 1 (≈ 0.419 µM) | 0.125 (≈ 0.0524 µM) | 0.0625 (≈ 0.0262 µM) | 0.5 (≈ 0.209 µM) | 0.5 (≈ 0.209 µM) | 0.125 (≈ 0.0524 µM) | 0.25 (≈ 0.105 µM) |
| CC(C)C[C@@H]1NC(=O)[C@@H](CC(C)C)NC(=O)[C@H](CCN)NC(=O)[C@@H](NC(=O)[C@H](CCN)NC(=O)[C@@H](NC(=O)[C@H](CCN)NC(=O)CC[C@@H]2NC(=O)[C@H](CN)NC(=O)[C@H](Cc3ccc(O)cc3)NC(=O)[C@@H](NC(=O)[C@@H](O)C(C)C)CSSC[C@@H](C(=O)N[C@H](CO)[C@@H](C)O)NC(=O)[C@H](C(C)(C)C)NC(=O)[C@H](CCC(=O)O)NC(=O)[C@H](Cc3c[nH]c4ccccc34)NC(=O)[C@H]([C@@H](C)O)NC(=O)[C@@H](CCN)NC2=O)[C@@H](C)O)CCNC(=O)[C@H]([C@@H](C)O)NC(=O)[C@H](CCN)NC(=O)[C@H](CCN)NC1=O [Ex. 90] (I: H-[Hiv]CY[Dap]E[dDab]TWE[Tle]C[Thr(ol)] / II: [Dab]T[Dab][Dab][Dab][dL]L[Dab][Dab]T; disulfide I:2-I:11; amide I:5-II:N; lactam II:4-II:C) | <1 | 0.5 (≈ 0.206 µM) | 0.25 (≈ 0.103 µM) | 0.125 (≈ 0.0515 µM) | 0.125 (≈ 0.0515 µM) | 0.25 (≈ 0.103 µM) | 0.125 (≈ 0.0515 µM) | 0.0625 (≈ 0.0257 µM) | 0.25 (≈ 0.103 µM) |
